The test system of series [1] is KB (human nasopharyngeal carcinoma) cell line. The series is described as follows: Cytotoxicity against KB cell line. The series is classed as cell-based.
The test system of series [2] is LoVo (human colon-carcinoma) cell line. The series is described as follows: Cytotoxicity against LoVo cell line. The series is classed as cell-based.
The subject of series [3] is murine leukemia (L1210 or P388), murine solid tumor, human solid tumor and low malignancy fibroblast (LML) cells. The settings on record: for Differential in Zone Units, Corbett Assay: μg/disk as for E3; for Type of Cytotoxicity, Corbett Assay: μg/disk: 1 12.5, 2 25, 3 25, 4 20, 5 2.9, 6 250, 8 30, 5-FU 2.5, VP-16 5, taxol 0.2, ^c selective against drug-sensitive and drug-resistant cell lines, ^d drug-sensitive cell lines only.

Series [4] deals with Colon 38 (colon adenocarcinoma #38).
Experimental: (§1) Gross log kill is defined as T-C/3.2 Td where T is the median time in days for the tumors of the treated group to reach 750 mg, C is the median time in days for the tumors of the control group to reach 750 mg, and Td is the tumor volume doubling time.
Another series concerns H125 Human Adenosq-lung. The settings on record: Exp # 1823; SC H125 Human Adenosq-lung, SCID mice; 8 inj. IV; total dose 14.4 mg/kg.
Series [5] concerns murine and human tumors implanted in mice. The conditions noted are these: for lethal toxicity observed during testing: in vivo testing.
Experimental: as §1
For another series, the system named is strains of Cryptococcus. The conditions noted are these: found by researchers at Merck; cited from earlier work.
For the next series, the system named is MX-1 Human Breast. The series is described as follows: In vivo activity, SC MX-1 tumor. The conditions noted are these: Exp # 1806; SC MX-1 Human Breast, SCID mice; 8 inj. IV; total dose 12 mg/kg.
The subject of another series is M17/0 (Adr. Sens.). In words: In vivo activity, SC M17/0 tumor. The conditions noted are these: Exp # 1833; SC M17/0 (Adr. Sens.); 5 inj. IV; total dose 5.4 mg/kg.
For the next series, the system named is LNCaP Human Prostate. The series is described as follows: In vivo activity, SC LNCaP tumor. The conditions noted are these: Exp # 1841, 6 inj. IV, total dose 6.5 mg/kg.
Series [6] deals with Human Sm Cell L. DMS273 SCID. The series is described as follows: In vivo activity, SC DMS273 tumor. The conditions noted are these: Exp # 1596, 6 inj. IV, total dose 7.3 mg/kg.
Experimental: as §1
Series [7] relates to Colon 51 (colon adenocarcinoma #51). The series is described as follows: In vivo activity, SC Colon 51 tumor.
Experimental: as §1
Another series deals with Mam 16/C (mammary #16/C). In words: In vivo activity, SC Mam 16/C tumor.
In series [8] the test system is SKOV3 (human ovarian carcinoma) cell line. The series is described as follows: Cytotoxicity against SKOV3 cell line. The conditions noted are these: Table 2.
Series [9] deals with Mam 16/Taxol (taxol-resistant mammary #16/C/RP). The series is described as follows: In vivo activity, SC Mam 16/Taxol tumor. The conditions noted are these: Exp # 1733, 5 inj. IV, total dose 16.5 mg/kg.
Experimental: as §1
Series [10] relates to Panc 03 (pancreatic ductal adenocarcinoma #03, P03). The settings on record: Exp # 1825; SC P03; 11 inj. IV; 106 mg/kg TD.
Experimental: as §1
For series [11], the system named is A-10 rat aortic smooth muscle cells. The series is classed as cell-based. The conditions noted are these: A-10 cells. As to the method: A-10 cells were grown to near-confluency on glass coverslips in BME/10% FBS. Compounds in PBS were added to the indicated final concentrations and cells were incubated for an additional 24 hours. For the staining of microtubules and intermediate filaments, the cells were fixed with cold methanol and incubated with PBS containing 10% calf serum to block nonspecific binding sites. Cells were then incubated at 37° C. for 60 min with either monoclonal anti-p-tubulin or with monoclonal anti-vimentin at dilutions recommended by the manufacturer. Bound primary antibodies were subsequently visualized by a 45-minute incubation with fluorescein-conjugated rabbit antimouse IgG. The coverslips were mounted on microscope slides and the fluorescence patterns were examined and photographed using a Zeiss Photomicroscope Ill equipped with epifluorescence optics for fluorescein. […] PBS containing 100 nM TRITC-phalloidin was then added and the mixture was allowed to incubate for 45 min at 37° C. The cells were washed rapidly three times with PBS before the coverslips were mounted and immediately photographed as described above.
After 24 hours, microtubules and vimentin intermediate filaments were visualized by indirect immunofluorescence and microfilaments were stained using TRITC-phalloidin. The morphological effects of each drug were examined.
After 24 hours, microtubule organization was examined by immunofluorescence as described above.
The cells were then washed and incubated in drug-free medium for periods of 1 hour or 24 hours.

Series [12] deals with SKOV3 cells (human ovarian carcinoma). The series is described as follows: Cell proliferation assay (SRB staining), SKOV3 cells. The conditions noted are these: SKOV3 cells treated 24 hours with IC50 doses, then drug-free medium. The series is classed as cell-based. (Sulforhodamine B stains cellular protein and so reports cell mass.)
Where [13] appears, read: Exp # 1560, SC Colon 38, 8 inj. IV, total dose 10.3 mg/kg.
[14] abbreviates: Exp # 1636, 7 inj. IV, total dose 28.1 mg/kg.
Setting [15] is: Exp # 1720, 5 inj. IV, total dose 13.2 mg/kg.
[16] abbreviates: Exp # 1769, SC C38, 15 inj. IV, 45 mg/kg TD.
Setting [17] is: Exp # 1887B, SC C38, 6 inj. IV, 30 mg/kg TD.
Where [18] appears, read: Exp # 1900, 9 inj. IV, 67.5 mg/kg TD.
The mark [19] stands for this setting: Exp # 1885, 7 inj. IV, 21.3 mg/kg TD.
Where [20] appears, read: 24 hours, 2 μM cytochalasin B, 100 nM vinblastine or 10 nM cryptophycin compounds.

Structures are written as SMILES. Like-named read-outs stand apart in the source and are kept apart here.

Experimental for H125 Human Adenosq-lung: as §1
Experimental for LNCaP Human Prostate: as §1
Experimental for M17/0 (Adr. Sens.): as §1
Experimental for MX-1 Human Breast: as §1
Experimental for Mam 16/C (mammary #16/C): as §1

With `COc1ccc(C[C@H]2NC(=O)/C=C/C[C@@H]([C@H](C)[C@H]3O[C@@H]3c3ccccc3)OC(=O)[C@H](CC(C)C)OC(=O)[C@H](C)CNC2=O)cc1Cl` [Cryptophycin 1], the entries for the “KB IC50” value in series [1] (Table 1) and in [1] (Table 2) were 0.005 ng/mL and 0.0025 ng/mL, respectively. The “LoVo IC50” value is 0.003 ng/mL in series [2] (Table 1) and 0.001 ng/mL in series [2] (Table 2). Further, in [3], the “Differential in Zone Units, Corbett Assay” value (shortened to “Differential in Zone Units”) was above 400 Zone Units. Further, the “Type of Cytotoxicity, Corbett Assay” value in series [3] is reported as “E/T”. Further, the Cures (in series [4] (setting [13]); with H125 Human Adenosq-lung; in the series with MX-1 Human Breast; in series [6]; in the series on Mam 16/C (mammary #16/C) (setting [15])) was 0/5 in each case. Also, the “Log Kill” value in series [4] (setting [13]) is recorded as 1.5; with H125 Human Adenosq-lung it was 1.1; in the series on MX-1 Human Breast, 2.0; with M17/0 (Adr. Sens.) it was below 1; in series [6], below 1; in [7] (setting [14]), 1.3. In addition, the “Log Kill” value worked out at 1.4 in the series with Mam 16/C (mammary #16/C) (setting [15]) and 1.8 in [9]. Besides, the T/C – broadly, the ratio of treated to control – in [4] (setting [13]) is on record as 6%; in the series with H125 Human Adenosq-lung it was 9%; in the series with MX-1 Human Breast, 3%; with M17/0 (Adr. Sens.), 23%; in the series with LNCaP Human Prostate, 26%; in series [6], 27%. Besides, the results for the T/C (in [7] (setting [14]); in the series on Mam 16/C (mammary #16/C) (setting [15]); in series [9]) were 7%, 5% and 2%, respectively. The “% Body Wt. Loss at Nadir” value with H125 Human Adenosq-lung is -15%; in the series on MX-1 Human Breast it was -3%; in the series with M17/0 (Adr. Sens.) it was -10%; in the series on LNCaP Human Prostate, -6%; in series [6], 0%; in series [7] (setting [14]), -11%. For the same compound, the “% Body Wt. Loss at Nadir” value in the series on Mam 16/C (mammary #16/C) (setting [15]) is reported as -1%; in series [9], 0%. Further, the dead with H125 Human Adenosq-lung is listed as 1/5. Moreover, the “tumor burden T/C” value in [5] (five early stage murine tumors (colon #38, #51, taxol-sensitive and taxol-resistant mammary #16/C/RP, pancreatic #03) and MX-1 breast, H125 lung in SCID mice) is listed as “less than 10%”. Moreover, in series [5], the “lethal toxicity observed during testing” value is reported as “attributed to leucopenia”. Besides, in the series on strains of Cryptococcus, the “activity against strains of Cryptococcus” value is reported as “very active against strains of Cryptococcus”. The “SKOV3 IC50” value in series [8] is 0.026 ng/mL.
For the compound `COc1ccc(C[C@H]2NC(=O)/C=C/C[C@@H]([C@H](C)[C@@H](O)[C@@H](Cl)c3ccccc3)OC(=O)[C@H](CC(C)C)OC(=O)[C@H](C)CNC2=O)cc1Cl` [Cryptophycin 8], the “KB IC50” value amounted to 0.0002 ng/mL in series [1] (Table 1) and 0.01 ng/mL in series [1] (Table 2). In addition, the results for the “LoVo IC50” value in [2] (Table 1) and in [2] (Table 2) were 0.01 ng/mL and 0.0022 ng/mL, respectively. For the same compound, the “Differential in Zone Units” value in series [3] is recorded as above 500 Zone Units. Further, the “Type of Cytotoxicity, Corbett Assay” value in series [3] was “E/T”. For the same compound, the “% Body Wt. Loss at Nadir” value in series [4] (setting [16]) is listed as -2%; in series [10] it was -6%; in series [7] (setting [18]), -1%; in the series with Mam 16/C (mammary #16/C) (setting [19]), -4.5%. Further, the Cures is reported as 0/5 in series [4] (setting [16]), 1/5 in [4] (setting [17]), 0/5 in series [10] and 0/5 with Mam 16/C (mammary #16/C) (setting [19]). For the same compound, the “Log Kill” value was found to be 2.8 in [4] (setting [17]), 4.6 in [10], 1.8 in series [7] (setting [18]) and 2.5 with Mam 16/C (mammary #16/C) (setting [19]). Besides, the T/C in series [4] (setting [17]) was determined as 0%; in series [10], 4%; in series [7] (setting [18]), 7%; in the series with Mam 16/C (mammary #16/C) (setting [19]), 6%. The “tumor burden T/C” value in series [5] (all of the tumors tested to date) is below 10%. The “lethal toxicity observed during testing” value in series [5] is given as “attributed to leucopenia”. Moreover, the “gross log kill activity ratings” value in series [5] (tumors implanted in mice) is recorded as “+++ to ++++”. In series [8], the “SKOV3 IC50” value was found to be 0.15 ng/mL.
On to `C=C1[C@@H](C)[C@H]2[C@H](Cc3ccccc3)NC(=O)[C@]23OC(=O)/C=C/[C@H](O)CCC[C@@H](C)C/C=C/[C@H]3[C@@H]1O` [Cytochalasin B, cytochalasin B], for which, in series [11] (setting [20]), the effect on microtubules result is listed as “did not affect the distribution of either microtubules or intermediate filaments” and the “effect on vimentin intermediate filaments” value is reported as “did not affect the distribution of either microtubules or intermediate filaments”.
On to `CC(=O)O[C@H]1C(=O)[C@@]2(C)[C@H]([C@H](OC(=O)c3ccccc3)[C@]3(O)C[C@H](OC(=O)[C@H](O)[C@@H](NC(=O)c4ccccc4)c4ccccc4)C(C)=C1C3(C)C)[C@]1(OC(C)=O)CO[C@@H]1C[C@@H]2O` [taxol, reference compound], for which the “increase in cell number in the 24 hours following removal of the drug” value in series [12] was 0.2- to 0.4 fold. Also, in series [3], the “Differential in Zone Units” value was at least 400 Zone Units and the “Type of Cytotoxicity, Corbett Assay” value was “M/H/T”.
In the case of `CC[C@]1(O)C[C@@H]2CN(CCc3c([nH]c4ccccc34)[C@@](C(=O)OC)(c3cc4c(cc3OC)N(C)[C@H]3[C@@](O)(C(=O)OC)[C@H](OC(C)=O)[C@]5(CC)C=CCN6CC[C@]43[C@@H]65)C2)C1` [vinblastine], the “increase in cell number in the 24 hours following removal of the drug” value in series [12] is reported as “approximately 3 fold”. Besides, the “reversibility of microtubule depolymerization after removal of drug” value in series [11] (100 nM vinblastine or 10 nM cryptophycins for 24 hr, then drug-free medium 1 hour or 24 hours) is “complete morphological recovery by 24 hour”. In series [11] (3 hours 10 μM taxol, then 100 nM vinblastine or 10 nM cryptophycin compound, 24 hours), the “microtubule depolymerization after taxol pretreatment” value is “pretreatment with taxol prevented microtubule depolymerization in response to vinblastine”. For the same compound, in [11] (setting [20]), the effect on microfilaments result is recorded as “Neither compound affected microfilament organization” and the “effect on vimentin intermediate filaments” value was “vimentin intermediate filaments collapsed”.

The values above are taken from patent US5955423A (priority 1995, dated 1999).
